The results in this text go back to patent US10676504B2 (Colorado State University Research Foundation, priority 2015, dated 2020).

Where two headings read alike, the source gives them in different places.

By Ki is commonly meant the dissociation constant of the complex between target and ligand, obtained from inhibition or displacement.

For one experiment, the system named is human HDACs. The experiment can be described thus: HDAC biochemical assay (Example 16), summary statements over isoforms. Here is the method:
The inhibitory effect of compounds on deacetylase isoenzyme function was determined in vitro using an optimized homogenous assay performed in 384-well plate format. […] Data are analyzed on a plate-by-plate basis for the linear range of fluorescence over time. Data from the plate capture corresponding to the mid-linear range is imported into analytical software and annotated with well identity and compound concentration (Spotfire DecisionSite). Replicate experimental data from incubations with inhibitor are normalized to control, solvent-only wells and IC-50 is determined by logistic regression.
Thus, small-molecule inhibitors were arrayed at twelve-point dose-response (3-fold increments) in 384-well library plates and transferred by robotic pin device to replicate assay plates containing assay buffer under reducing conditions (TCEP 200 μM). A liquid handling device then transferred a tripeptide substrate terminating in acetyl-lysine and amide conjugated to 4-methyl-7-aminocoumarin (AMC), recombinant human histone deacetylase (BPS Bioscience, San Diego, Calif.), and recombinant human trypsin (Sigma-Aldrich, St. Louis, Mo.). […] Kinetic (fluorescence per unit time) and end-point (total fluorescence) data were captured by a multilabel plate reader. Replicate data were analyzed by curve-fit using logistic regression (Spotfire Decision-Site). […]

For experiment [1], the target named is T1, HDAC6 (Homo sapiens, UniProt Q9UBN7).
T1 sequence (Q9UBN7 1-1215): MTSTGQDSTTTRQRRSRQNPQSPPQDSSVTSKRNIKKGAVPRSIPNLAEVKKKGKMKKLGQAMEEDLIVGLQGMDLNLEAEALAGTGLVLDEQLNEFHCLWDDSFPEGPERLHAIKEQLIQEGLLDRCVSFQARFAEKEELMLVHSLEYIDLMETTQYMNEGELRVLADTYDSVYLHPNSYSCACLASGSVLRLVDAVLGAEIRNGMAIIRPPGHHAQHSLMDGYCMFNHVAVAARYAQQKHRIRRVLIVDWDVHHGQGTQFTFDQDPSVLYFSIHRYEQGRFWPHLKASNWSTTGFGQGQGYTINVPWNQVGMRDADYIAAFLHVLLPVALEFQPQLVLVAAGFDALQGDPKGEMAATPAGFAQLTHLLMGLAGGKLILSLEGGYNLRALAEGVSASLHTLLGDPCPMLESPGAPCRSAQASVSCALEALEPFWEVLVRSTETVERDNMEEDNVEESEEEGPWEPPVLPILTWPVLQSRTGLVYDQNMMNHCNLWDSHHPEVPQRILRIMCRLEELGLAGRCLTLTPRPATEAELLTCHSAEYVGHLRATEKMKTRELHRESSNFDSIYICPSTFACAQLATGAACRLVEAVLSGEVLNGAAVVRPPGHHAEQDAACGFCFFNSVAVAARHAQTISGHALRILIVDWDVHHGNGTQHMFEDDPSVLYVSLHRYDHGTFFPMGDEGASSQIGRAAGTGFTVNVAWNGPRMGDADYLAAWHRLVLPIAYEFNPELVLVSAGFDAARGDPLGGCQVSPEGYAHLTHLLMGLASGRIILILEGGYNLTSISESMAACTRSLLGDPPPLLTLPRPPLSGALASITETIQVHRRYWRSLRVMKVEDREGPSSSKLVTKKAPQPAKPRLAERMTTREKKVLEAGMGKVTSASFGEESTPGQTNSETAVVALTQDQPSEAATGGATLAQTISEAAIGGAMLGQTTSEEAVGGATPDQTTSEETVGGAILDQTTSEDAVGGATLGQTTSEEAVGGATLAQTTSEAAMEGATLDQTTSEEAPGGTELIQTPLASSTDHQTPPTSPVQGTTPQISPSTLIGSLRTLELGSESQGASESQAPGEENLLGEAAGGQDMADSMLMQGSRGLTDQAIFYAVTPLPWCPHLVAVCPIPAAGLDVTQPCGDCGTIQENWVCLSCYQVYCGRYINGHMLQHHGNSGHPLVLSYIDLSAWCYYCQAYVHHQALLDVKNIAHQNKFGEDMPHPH
The experiment can be described thus: HDAC biochemical assay (Example 16). More on the design: recombinant, full-length HDAC protein; purchased BPS Biosciences. The conditions noted are these: Table 4; reducing conditions (TCEP 200 μM).
Experimental: (§1) Thus, small-molecule inhibitors were arrayed at twelve-point dose-response (3-fold increments) in 384-well library plates and transferred by robotic pin device to replicate assay plates containing assay buffer under reducing conditions (TCEP 200 μM). A liquid handling device then transferred a tripeptide substrate terminating in acetyl-lysine and amide conjugated to 4-methyl-7-aminocoumarin (AMC), recombinant human histone deacetylase (BPS Bioscience, San Diego, Calif.), and recombinant human trypsin (Sigma-Aldrich, St. Louis, Mo.). Following deacetylase hydrolysis of acetyl-lysine, trypsin cleavage liberated the AMC fluorophore. Kinetic (fluorescence per unit time) and end-point (total fluorescence) data were captured by a multilabel plate reader. Replicate data were analyzed by curve-fit using logistic regression (Spotfire Decision-Site).

In the next experiment the target is T2, HDAC3/NCor2 (Homo sapiens, UniProt O15379).
T2 construct: recombinant, full-length HDAC protein; purchased BPS Biosciences
T2 sequence (O15379 whole entry): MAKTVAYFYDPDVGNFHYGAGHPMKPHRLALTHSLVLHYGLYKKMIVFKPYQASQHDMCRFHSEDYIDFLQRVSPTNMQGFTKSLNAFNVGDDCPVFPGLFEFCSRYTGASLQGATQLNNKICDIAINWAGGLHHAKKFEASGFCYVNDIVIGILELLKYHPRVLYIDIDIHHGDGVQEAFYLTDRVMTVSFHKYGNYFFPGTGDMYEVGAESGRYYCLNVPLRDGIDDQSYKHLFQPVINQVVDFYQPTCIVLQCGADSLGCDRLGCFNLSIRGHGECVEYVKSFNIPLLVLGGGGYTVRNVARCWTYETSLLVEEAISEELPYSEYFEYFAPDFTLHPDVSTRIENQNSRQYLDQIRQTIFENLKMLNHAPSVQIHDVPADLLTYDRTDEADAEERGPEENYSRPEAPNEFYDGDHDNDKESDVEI
T2 sequence (Q9Y618 395-489 partner limits assumed): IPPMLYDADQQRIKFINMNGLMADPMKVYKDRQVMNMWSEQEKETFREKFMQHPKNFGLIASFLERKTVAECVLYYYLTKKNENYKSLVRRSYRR
The experiment is described as follows: HDAC biochemical assay (Example 16).

Experiment [2] addresses T3, HDAC2 (Homo sapiens, UniProt Q92769). The experiment can be described thus: HDAC biochemical assay of O10-O12 (Table O1). More on the design: The recombinant, full-length HDAC protein (BPS Biosciences) was incubated; purchased BPS Biosciences.
The target in experiment [3] is T1, HDAC6. The note with it: read-out: HDAC6 IC50; Table O1; 200 μM TCEP.
Experiment [4] deals with T4, HDAC1 (Homo sapiens, UniProt Q13547). The note with it: read-out: HDAC1 IC50; Table O1.
T4 sequence (Q13547 whole entry): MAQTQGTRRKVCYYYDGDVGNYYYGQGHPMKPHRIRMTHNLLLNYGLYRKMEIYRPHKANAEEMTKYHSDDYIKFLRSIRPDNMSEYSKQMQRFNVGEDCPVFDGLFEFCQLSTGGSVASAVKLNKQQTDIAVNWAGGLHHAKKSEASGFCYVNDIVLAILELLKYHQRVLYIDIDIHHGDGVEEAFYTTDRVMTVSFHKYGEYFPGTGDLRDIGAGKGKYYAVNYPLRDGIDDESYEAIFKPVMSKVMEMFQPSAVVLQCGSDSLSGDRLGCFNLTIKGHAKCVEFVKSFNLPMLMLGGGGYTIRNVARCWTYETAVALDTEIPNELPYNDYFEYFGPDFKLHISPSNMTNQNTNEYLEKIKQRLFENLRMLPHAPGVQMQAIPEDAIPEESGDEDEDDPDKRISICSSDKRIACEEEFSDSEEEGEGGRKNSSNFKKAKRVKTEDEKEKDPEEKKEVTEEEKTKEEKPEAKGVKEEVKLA
The target of another experiment is T5, HDAC3 (Homo sapiens, UniProt O15379).
T5 construct: The recombinant, full-length HDAC protein (BPS Biosciences) was incubated; purchased BPS Biosciences
T5 sequence (O15379 whole entry): as the sequence (O15379 whole entry) above
T5 sequence (Q9Y618 395-489 partner limits assumed): as the sequence (Q9Y618 395-489 partner limits assumed) above
The experiment is described as follows: HDAC biochemical assay of O10-O12 (Table O1).

Experiment [5] deals with T3, HDAC2. The experiment can be described thus: HDAC2 inhibition, trypsin-coupled kinetic fluorescence homogeneous assay (Example 10). It counts as biochemical. More on the design: The recombinant, full-length HDAC protein (BPS Biosciences) was incubated; purchased BPS Biosciences. The conditions noted are these: Conc (uM); logistic curve fit of activity versus concentration; some fits reached max iterations; read-out: X50.
Experimental: (§2) To measure the inhibitory effect on deacetylase function in vitro, a continuous kinetic biochemical assay miniaturized to 384-well plate format was optimized.
(§3) Fluorescence measurements were obtained in real-time on a Varioskan microtiter plate reader (Thermo).
A biochemical study of HDAC2 inhibition was carried out using the trypsin-coupled, kinetic fluorescence homogeneous assay described above.

Experiment [6] deals with T4, HDAC1. The experiment is described as follows: HDAC biochemical assay (Example 16). More on the design: recombinant, full-length HDAC protein; purchased BPS Biosciences. The note with it: Table 4; reducing conditions (TCEP 200 μM).
Experimental: as §1
The target in experiment [7] is T3, HDAC2. The experiment is described as follows: HDAC biochemical assay (Example 16). Also on record: recombinant, full-length HDAC protein; purchased BPS Biosciences. The note with it: Table 4; reducing conditions (TCEP 200 μM).
Experimental: as §1
The target in experiment [8] is T6, HDAC8 (Homo sapiens, UniProt Q9BY41).
T6 sequence (Q9BY41 1-377): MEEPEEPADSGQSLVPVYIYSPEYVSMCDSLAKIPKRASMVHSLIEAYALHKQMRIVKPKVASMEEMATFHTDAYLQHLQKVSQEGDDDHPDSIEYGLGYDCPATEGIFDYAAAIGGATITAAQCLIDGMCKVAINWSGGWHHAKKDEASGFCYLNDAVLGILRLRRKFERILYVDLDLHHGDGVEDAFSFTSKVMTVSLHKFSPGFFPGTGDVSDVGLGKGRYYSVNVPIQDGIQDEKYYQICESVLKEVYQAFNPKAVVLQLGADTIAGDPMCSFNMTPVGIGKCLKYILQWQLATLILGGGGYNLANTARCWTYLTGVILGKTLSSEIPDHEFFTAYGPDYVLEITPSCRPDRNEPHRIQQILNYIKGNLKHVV
The conditions noted are these: read-out: HDAC8 IC50; Table O1.

Another experiment deals with HDAC7 (Homo sapiens, UniProt Q8WUI4). The note with it: read-out: HDAC7 IC50; Table O1.
Sequence of HDAC7 (Q8WUI4 518-952 limits assumed): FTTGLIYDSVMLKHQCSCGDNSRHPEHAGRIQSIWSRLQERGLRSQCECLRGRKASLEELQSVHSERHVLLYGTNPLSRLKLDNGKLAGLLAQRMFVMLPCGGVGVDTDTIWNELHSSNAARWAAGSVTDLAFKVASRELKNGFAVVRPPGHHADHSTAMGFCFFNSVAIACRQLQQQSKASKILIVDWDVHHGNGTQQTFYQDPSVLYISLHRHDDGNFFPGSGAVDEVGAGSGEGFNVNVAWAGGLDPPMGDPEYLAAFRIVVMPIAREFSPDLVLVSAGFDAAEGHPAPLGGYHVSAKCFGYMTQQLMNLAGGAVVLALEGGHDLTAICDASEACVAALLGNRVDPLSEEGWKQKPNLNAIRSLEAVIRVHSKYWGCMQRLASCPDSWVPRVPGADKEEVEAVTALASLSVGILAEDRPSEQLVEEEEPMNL
For experiment [9], the system named is NCI-60 cancer cell lines. The experiment can be described thus: cells.
Text: (§4) All compounds submitted for screening were initially tested at a single high dose (10^-5 M) against the fill NCI 60 cell panel. Only compounds which satisfied pre-determined threshold inhibition criteria in a minimum number of cell lines progressed to a second round of testing utilizing a more comprehensive 5-dose inhibition assay. The threshold inhibition criteria for progression to the 5-dose assays were selected to efficiently capture compounds with anti-proliferative activity based on historical DTP screening data.
(§5) Concentrations for G150, IC50, TGI, and LC50 were calculated for all cell lines tested, and heat plots were prepared.
Experiment [10] deals with T4, HDAC1. The experiment is described as follows: HDAC biochemical assay of P5-P12 (Table P1). More on the design: The recombinant, full-length HDAC protein (BPS Biosciences) was incubated; purchased BPS Biosciences.
In experiment [11] the target is T6, HDAC8. The experiment can be described thus: HDAC biochemical assay of P5-P12 (Table P1). More on the design: The recombinant, full-length HDAC protein (BPS Biosciences) was incubated; purchased BPS Biosciences.
Experiment [12] deals with T3, HDAC2. It counts as biochemical. Also on record: The recombinant, full-length HDAC protein (BPS Biosciences) was incubated; purchased BPS Biosciences. The note with it: read-out: HDAC inhibitory activity (Ki) HDAC2.
Text: as §2, §3
The test system of experiment [13] is melanoma cell lines. The conditions noted are these: five-dose.
Text: as §4, §5
Experiment [14] concerns NCI-60 cancer cell lines. The conditions noted are these: five-dose.
Text: as §4, §5
Experiment [15] concerns human malignant melanoma cell lines. The experiment is described as follows: melanoma cell viability, ATP content (Cell TiterGlo). Type of experiment: cell-based. The conditions noted are these: range over panel of melanoma cell lines, FIG. 4, read-out: IC50 melanoma cell proliferation. (In ATP-based viability assays light output follows the ATP content of the culture.)
The next experiment relates to renal cancer cell lines. The conditions noted are these: five-dose.
For experiment [16], the target named is T4, HDAC1. The note with it: read-out: HDAC inhibitory activity (Ki) HDAC1; Table 2.
Text: as §2, §3
The target of experiment [17] is T3, HDAC2. The experiment is described as follows: HDAC biochemical assay of P5-P12 (Table P1). Also on record: The recombinant, full-length HDAC protein (BPS Biosciences) was incubated; purchased BPS Biosciences.
Experiment [18] has as its system melanoma cell lines. The experiment is described as follows: cells. The conditions noted are these: read-out: Average Concentration (M), LC50, Melanoma.
Text: as §4, §5
The subject of a further experiment is HDACs 1-3. The experiment can be described thus: HDAC biochemical assay of P5-P12, summary statements.

T3 sequence (Q92769 whole entry): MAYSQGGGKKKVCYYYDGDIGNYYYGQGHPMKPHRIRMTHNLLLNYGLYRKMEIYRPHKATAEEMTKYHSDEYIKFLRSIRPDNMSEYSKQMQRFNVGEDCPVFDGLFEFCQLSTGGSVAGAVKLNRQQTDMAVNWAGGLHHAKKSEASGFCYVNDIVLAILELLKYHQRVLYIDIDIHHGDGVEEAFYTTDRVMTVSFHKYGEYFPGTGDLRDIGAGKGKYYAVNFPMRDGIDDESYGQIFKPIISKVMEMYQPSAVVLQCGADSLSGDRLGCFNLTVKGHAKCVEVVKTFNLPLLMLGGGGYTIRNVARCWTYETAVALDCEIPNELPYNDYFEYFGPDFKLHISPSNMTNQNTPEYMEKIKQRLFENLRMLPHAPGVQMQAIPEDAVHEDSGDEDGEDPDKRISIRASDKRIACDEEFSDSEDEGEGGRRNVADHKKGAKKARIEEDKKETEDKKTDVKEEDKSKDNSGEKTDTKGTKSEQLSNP
Experimental for HDAC3/NCor2: as §1
Text for renal cancer cell lines: as §4, §5

For the molecule `CC(C)[C@@H]1NC(=O)[C@]2(C)CSC(=N2)c2cccc(n2)CNC(=O)C[C@@H](/C=C/CCS)OC1=O` [Thiazole-pyridine substitution (29b)], the “activity against Class I HDACs” value in the experiment with human HDACs was “sub-nanomolar”. Besides, the IC50 amounted to 29 nM at HDAC6 [1] and 1.1 nM against HDAC3/NCor2.
Consider `CCCCCCCC(=O)SCCC=CC1CC(=O)NCc2nc(co2)C2=NC(C)(CS2)C(=O)NC(C(C)C)C(=O)O1` (stereo not drawn) [Compound O12, Thiazoline-Oxazole Thioester Analog], for which the IC50 is 2100 nM on HDAC2 [2], 1100 nM on HDAC6 [3], 950 nM at HDAC1 [4] and 1900 nM at HDAC3.
`C[C@@]12CSC(=N1)c1csc(n1)CNC(=O)C[C@@H](/C=C/CCS)OC(=O)[C@@H]1CCCN1C2=O` [Proline substitution (4)]: the IC50 was found to be 0.773 µM on HDAC2 [5]; 110 nM at HDAC1 [6]; 800 nM on HDAC2 [7]; 13000 nM on HDAC6 [1]; 580 nM at HDAC3/NCor2 (Table 4, reducing conditions (TCEP 200 μM)).
Consider `CC(C)C1NC(=O)C2(C)COC(=N2)c2coc(n2)CNC(=O)CC(C=CCCSSCCC=CC2CC(=O)NCc3nc(co3)C3=NC(C)(CO3)C(=O)NC(C(C)C)C(=O)O2)OC1=O` (stereo not drawn) [Oxazoline-oxazole (39b), Disulfide Dimer 39b], for which the IC50 on HDAC1 [6] turned out to be 0.69 nM; on HDAC2 [7], 1.7 nM; at HDAC3/NCor2, 1.5 nM.
`CC(C)[C@@H]1NC(=O)[C@]2(C)CSC(=N2)c2coc(n2)CNC(=O)C[C@@H](/C=C/CCS)OC1=O` [Compound O11, Thiazoline-Oxazole Thiol Analog]: the IC50 came out at 1200 nM at HDAC8 [8]; 20 nM at HDAC2 [2]; 960 nM at HDAC7; 98 nM on HDAC6 [3]; 4.4 nM on HDAC1 [4]; 7.2 nM at HDAC3.
On to `CCCCCCCC(=O)SCC/C=C/[C@@H]1CC(=O)NCc2nc(cs2)C2=N[C@@](C)(CS2)C(=O)N[C@@H](C(C)C)C(=O)O1` [Largazole, largazole, reference compound], for which the GI50 in the experiment on NCI-60 cancer cell lines [9] (read-out: Average Concentration (M), GI50) was determined as 2.1e-06 M; in the experiment with NCI-60 cancer cell lines [9] (read-out: GI50 concentrations (M), order of magnitude), 1e-06 M. The IC50 is 10.1 nM at HDAC1 [10]; 1070 nM on HDAC8 [11]; 900 nM at HDAC2 [2]; 230 nM at HDAC1 [4]; 45 to 315 nM in [15]; 18.6 nM on HDAC2 [17]. The Ki on HDAC2 [12] is 21 nM; on HDAC1 [16], 20 nM. In addition, in the experiment with melanoma cell lines [13], the “Percent of Cell Lines Impacted (%), LC50, Melanoma” value was determined as 33%. In the experiment on NCI-60 cancer cell lines [14] (50% Growth Inhibition), the “Percent of Cell Lines Impacted (%), GI50” value stood at 100%. Moreover, the “Percent of Cell Lines Impacted (%), LC50” value with NCI-60 cancer cell lines [14] (50% Lethal Concentration reached) is given as 7%. For the same molecule, the “Percent of Cell Lines Impacted (%), TGI” value with NCI-60 cancer cell lines [14] (Total Growth Inhibition) stood at 58%. In addition, the “Total Impacted Cell Lines (n), TGI” value in the experiment with NCI-60 cancer cell lines [14] (Total Growth Inhibition) worked out at 34. The “Percent of Cell Lines Impacted (%), LC50, Renal” value with renal cancer cell lines stood at 14%. Also, the CC50 in the experiment on melanoma cell lines [18] came out at 3.55e-06 M. Besides, the “IC50 range in words for HDACs 1-3” value in the experiment with HDACs 1-3 is given as “high nM-μM range”.
